One may read the inhibition as the relative decrease from the control value, in per cent.

Three compounds from patent EP4775574A1, “FURAN RING-CONTAINING COMPOUND, PHARMACEUTICAL COMPOSITION THEREOF, AND USE THEREOF” (Wuhan Xirui Pharmaceutical Technology Co., Ltd, priority 2023, dated 2025) can be followed below.

Common to all, as to type: cell-based
Assay [1] deals with Nav1.6 (Homo sapiens, UniProt Q9UQD0). The experiment in a line: Sodium channel selectivity test, patch-clamp, Nav1.6. As to conditions: read-out: Nav1.6 Inhibition rate (%). The source says: (§1) Test Example 3: Selectivity test of the compounds of the present disclosure on sodium channels • 1. Experimental objective: The effects of the compounds on the current of the voltage-gated sodium channel (NaV) subtypes 1.1-1.7 were detected by patch-clamp technique • 2. Experimental materials and instruments • 2.1 Cell lines: CHO/HEK293 cell lines stably expressing Nav1.1-1.7 sodium channels, constructed in-house by the laboratory of Beijing ICE Bioscience Co., Ltd., (Reference: Jarvis MF, Honore P, Shieh CC, Chapman M, Joshi S, Zhang XF, Kort M, Carroll W, Marron B, Atkinson R, Thomas J, Liu D, Krambis M, Liu Y, McGaraughty S, Chu K, Roeloffs R, Zhong C, Mikusa JP, Hernandez G, Gauvin D, Wade C, Zhu C, Pai M, Scanio M, Shi L, Drizin I, Gregg R, Matulenko M, Hakeem A, Gross M, Johnson M, Marsh K, Wagoner PK, Sullivan JP, Faltynek CR, Krafte DS. A-803467, a potent and selective Nav1.8 sodium channel blocker, attenuates neuropathic and inflammatory pain in the rat. Proc Natl Acad Sci U S A. 2007 May 15;104(20):8520-5. doi: 10.1073/pnas.0611364104. Epub 2007 May 2. PMID: 17483457; PMCID: PMC1895982.), gene information Nav1.1: NM_006920; Nav1.2: NM_001040142; Nav1.3: NM_006922; Nav1.4: NM_000334; Nav1.5: NM198056; Nav1.6: NM014191; Nav1.7: […]. • 2.2 Compounds: Dissolved in DMSO, with sample concentration prepared at 30 µM. • 3. Experimental methods • 3.1 Cell culture • (1) Maintenance medium: CHO cells were cultured in HAM'S/F-12 medium containing 10% fetal bovine serum, 100 µg/mL Zeocin, and 10 µg/mL Blasticidin, under conditions of 37°C incubation temperature and 5% carbon dioxide concentration. HEK-293 cells were cultured in DMEM medium containing 10% fetal bovine serum and 800 µg/mL G418; the culture temperature was 37°C, and the carbon dioxide concentration was 5%. • (2) Cell passage: The old medium was removed, and the cells were washed once with PBS, then 1 mL of 0.25%-Trypsin-EDTA solution was added and incubated at 37°C for approximately 1.5 min. When the cells were detached from the bottom of the dish, about 5 mL of preheated complete medium at 37°C was added. […]

Assay [2] addresses T1, Nav1.8 sodium channel (Homo sapiens, UniProt Q9Y5Y9).
T1 construct: host or cells: CHO
The experiment in a line: Blocking activity against sodium channel 1.8 (Nav1.8), whole-cell patch-clamp, inhibition rate. As to conditions: CHO cell line stably expressing Nav1.8; patch-clamp; test concentration not given. Here is the method:
Experimental objective: The effects of the compounds on the current of the voltage-gated sodium channel (NaV) 1.8 subtype were detected by patch-clamp technique • 2. […] When the cells were detached from the bottom of the dish, about 5 mL of preheated complete medium at 37°C was added. The cell suspension was gently pipetted up and down to separate the aggregated cells. The cell suspension was transferred to a sterile centrifuge tube and centrifuged at 1000 rpm for 5 min to collect the cells. […] First, the voltage was stepped from -130 mV to -10 mV in 10 mV increments for 5 s, and then a 0 mV depolarizing pulse was applied to obtain the half-inactivation voltage (Vhalf). The resting state and half-inactivated state of the sodium current were detected by using a double-pulse protocol. First, the first depolarizing pulse (TP1) was applied to 0 mV for 50 ms to detect the sodium current in the resting state. Then, the voltage was adjusted to Vhalf and maintained for 5 s, followed by restoration of the voltage to -120 mV and maintenance for 20 ms, after which the second depolarizing pulse (TP2) was applied to 0 mV for 50 ms to detect the sodium current in the half-inactivated state. Finally, the voltage was restored to the clamping voltage of -120 mV. Data were repeatedly collected every […] to observe the effect of the drug on the peak values of sodium currents in the two different states. Experimental data were collected by the EPC 10 amplifier (HEKA) and stored in the PatchMaster (HEKA) software. • (2) During patch clamp operation, capillary glass tubes were first pulled into recording electrodes using a microelectrode puller, then the electrodes filled with intracellular solution were installed into the microelectrode holder. Under an inverted microscope, the micromanipulator was used to bring the recording electrode into contact with the cell, and negative pressure suction was applied to form a GΩ seal. At this time, fast capacitance compensation was performed, and then negative pressure was continuously applied to rupture the cell membrane and form the whole-cell recording mode. Finally, slow capacitance compensation was performed, and related parameters were recorded. Leak compensation was not applied. • (3) When the sodium current of whole-cell recording became stable, drug administration was started, and each drug concentration was applied for 5 min (or until the current became stable) before the next concentration was tested. The coverslip coated with cells was placed in the recording bath under an inverted microscope, and the blank control external solution and the test compound working solution were perfused through the recording bath in sequence from low concentration to high concentration by gravity, thereby acting on the cells, while a peristaltic pump was used for liquid exchange during recording. The current detected in the external solution without compounds for each cell was used as its own control group. Each concentration was independently tested twice. All electrophysiological experiments were conducted at room temperature.
First, the current after the effect of each drug concentration and the blank control current were normalized, then the inhibition rate corresponding to each drug concentration was calculated, that is, (1-Icompound /Icontrol), and the mean, standard deviation (SD), and standard error (SE) of the inhibition rate for each concentration were calculated, and the data were expressed as mean ± SE.
In general terms: In patch-clamp work, channel activity is measured electrically.

The target in assay [3] is Nav1.4 (Homo sapiens, UniProt P35499). Briefly: Sodium channel selectivity test, patch-clamp, Nav1.4. The settings on record: read-out: Nav1.4 Inhibition rate (%).
Sequence of Nav1.4 (P35499 whole entry): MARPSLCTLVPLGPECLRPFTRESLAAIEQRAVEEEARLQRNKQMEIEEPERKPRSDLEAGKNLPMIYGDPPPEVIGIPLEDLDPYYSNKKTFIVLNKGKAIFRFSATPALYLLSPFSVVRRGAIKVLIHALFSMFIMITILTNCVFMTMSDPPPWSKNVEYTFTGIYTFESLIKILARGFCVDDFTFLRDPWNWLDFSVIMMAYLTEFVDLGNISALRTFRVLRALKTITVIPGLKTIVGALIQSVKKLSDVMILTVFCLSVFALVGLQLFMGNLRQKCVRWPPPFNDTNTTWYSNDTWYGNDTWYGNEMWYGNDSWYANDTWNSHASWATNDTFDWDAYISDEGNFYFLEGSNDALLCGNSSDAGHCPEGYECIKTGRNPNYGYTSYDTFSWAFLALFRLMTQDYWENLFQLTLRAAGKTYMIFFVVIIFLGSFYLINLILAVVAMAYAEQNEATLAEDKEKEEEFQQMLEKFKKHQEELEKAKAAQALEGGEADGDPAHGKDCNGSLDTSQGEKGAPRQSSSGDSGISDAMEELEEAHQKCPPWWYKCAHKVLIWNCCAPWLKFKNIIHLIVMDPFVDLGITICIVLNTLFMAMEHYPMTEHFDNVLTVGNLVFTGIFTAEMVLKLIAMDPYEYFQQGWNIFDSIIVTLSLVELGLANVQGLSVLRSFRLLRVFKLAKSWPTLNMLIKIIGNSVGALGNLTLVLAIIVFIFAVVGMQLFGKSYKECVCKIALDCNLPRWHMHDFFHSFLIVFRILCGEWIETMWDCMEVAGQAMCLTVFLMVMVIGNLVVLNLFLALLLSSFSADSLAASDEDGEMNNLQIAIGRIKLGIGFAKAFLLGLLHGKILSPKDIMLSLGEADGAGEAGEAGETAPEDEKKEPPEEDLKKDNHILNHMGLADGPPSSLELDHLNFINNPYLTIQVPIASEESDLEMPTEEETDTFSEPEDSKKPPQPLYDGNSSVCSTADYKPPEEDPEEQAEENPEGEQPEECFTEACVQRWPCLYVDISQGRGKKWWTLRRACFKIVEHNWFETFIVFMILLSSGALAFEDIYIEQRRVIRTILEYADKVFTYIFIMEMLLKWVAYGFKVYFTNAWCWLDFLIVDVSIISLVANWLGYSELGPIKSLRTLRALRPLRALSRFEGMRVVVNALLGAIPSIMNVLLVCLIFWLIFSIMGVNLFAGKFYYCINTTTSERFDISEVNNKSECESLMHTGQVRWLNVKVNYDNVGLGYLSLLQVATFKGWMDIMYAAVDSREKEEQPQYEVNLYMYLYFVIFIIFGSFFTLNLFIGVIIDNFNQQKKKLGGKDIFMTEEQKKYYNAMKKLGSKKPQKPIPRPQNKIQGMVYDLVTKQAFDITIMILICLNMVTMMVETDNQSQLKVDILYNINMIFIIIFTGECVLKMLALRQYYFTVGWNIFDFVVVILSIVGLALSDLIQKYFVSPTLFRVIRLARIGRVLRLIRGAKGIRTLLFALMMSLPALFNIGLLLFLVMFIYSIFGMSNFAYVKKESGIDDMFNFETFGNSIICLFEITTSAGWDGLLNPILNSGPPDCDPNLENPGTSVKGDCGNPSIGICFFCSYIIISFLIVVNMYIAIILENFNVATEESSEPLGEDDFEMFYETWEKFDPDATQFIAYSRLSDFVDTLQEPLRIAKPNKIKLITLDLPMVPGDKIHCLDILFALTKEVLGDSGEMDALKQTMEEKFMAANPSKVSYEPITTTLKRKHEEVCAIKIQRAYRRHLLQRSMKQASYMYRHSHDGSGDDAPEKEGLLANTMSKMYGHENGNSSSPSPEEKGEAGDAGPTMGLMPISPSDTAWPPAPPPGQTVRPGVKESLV
Description: as §1

The target of assay [4] is Nav1.3 (Homo sapiens, UniProt Q9NY46). Briefly: Sodium channel selectivity test, patch-clamp, Nav1.3. As to conditions: read-out: Nav1.3 Inhibition rate (%).
Sequence of Nav1.3 (Q9NY46 1-2000 isoform Q9NY46-3): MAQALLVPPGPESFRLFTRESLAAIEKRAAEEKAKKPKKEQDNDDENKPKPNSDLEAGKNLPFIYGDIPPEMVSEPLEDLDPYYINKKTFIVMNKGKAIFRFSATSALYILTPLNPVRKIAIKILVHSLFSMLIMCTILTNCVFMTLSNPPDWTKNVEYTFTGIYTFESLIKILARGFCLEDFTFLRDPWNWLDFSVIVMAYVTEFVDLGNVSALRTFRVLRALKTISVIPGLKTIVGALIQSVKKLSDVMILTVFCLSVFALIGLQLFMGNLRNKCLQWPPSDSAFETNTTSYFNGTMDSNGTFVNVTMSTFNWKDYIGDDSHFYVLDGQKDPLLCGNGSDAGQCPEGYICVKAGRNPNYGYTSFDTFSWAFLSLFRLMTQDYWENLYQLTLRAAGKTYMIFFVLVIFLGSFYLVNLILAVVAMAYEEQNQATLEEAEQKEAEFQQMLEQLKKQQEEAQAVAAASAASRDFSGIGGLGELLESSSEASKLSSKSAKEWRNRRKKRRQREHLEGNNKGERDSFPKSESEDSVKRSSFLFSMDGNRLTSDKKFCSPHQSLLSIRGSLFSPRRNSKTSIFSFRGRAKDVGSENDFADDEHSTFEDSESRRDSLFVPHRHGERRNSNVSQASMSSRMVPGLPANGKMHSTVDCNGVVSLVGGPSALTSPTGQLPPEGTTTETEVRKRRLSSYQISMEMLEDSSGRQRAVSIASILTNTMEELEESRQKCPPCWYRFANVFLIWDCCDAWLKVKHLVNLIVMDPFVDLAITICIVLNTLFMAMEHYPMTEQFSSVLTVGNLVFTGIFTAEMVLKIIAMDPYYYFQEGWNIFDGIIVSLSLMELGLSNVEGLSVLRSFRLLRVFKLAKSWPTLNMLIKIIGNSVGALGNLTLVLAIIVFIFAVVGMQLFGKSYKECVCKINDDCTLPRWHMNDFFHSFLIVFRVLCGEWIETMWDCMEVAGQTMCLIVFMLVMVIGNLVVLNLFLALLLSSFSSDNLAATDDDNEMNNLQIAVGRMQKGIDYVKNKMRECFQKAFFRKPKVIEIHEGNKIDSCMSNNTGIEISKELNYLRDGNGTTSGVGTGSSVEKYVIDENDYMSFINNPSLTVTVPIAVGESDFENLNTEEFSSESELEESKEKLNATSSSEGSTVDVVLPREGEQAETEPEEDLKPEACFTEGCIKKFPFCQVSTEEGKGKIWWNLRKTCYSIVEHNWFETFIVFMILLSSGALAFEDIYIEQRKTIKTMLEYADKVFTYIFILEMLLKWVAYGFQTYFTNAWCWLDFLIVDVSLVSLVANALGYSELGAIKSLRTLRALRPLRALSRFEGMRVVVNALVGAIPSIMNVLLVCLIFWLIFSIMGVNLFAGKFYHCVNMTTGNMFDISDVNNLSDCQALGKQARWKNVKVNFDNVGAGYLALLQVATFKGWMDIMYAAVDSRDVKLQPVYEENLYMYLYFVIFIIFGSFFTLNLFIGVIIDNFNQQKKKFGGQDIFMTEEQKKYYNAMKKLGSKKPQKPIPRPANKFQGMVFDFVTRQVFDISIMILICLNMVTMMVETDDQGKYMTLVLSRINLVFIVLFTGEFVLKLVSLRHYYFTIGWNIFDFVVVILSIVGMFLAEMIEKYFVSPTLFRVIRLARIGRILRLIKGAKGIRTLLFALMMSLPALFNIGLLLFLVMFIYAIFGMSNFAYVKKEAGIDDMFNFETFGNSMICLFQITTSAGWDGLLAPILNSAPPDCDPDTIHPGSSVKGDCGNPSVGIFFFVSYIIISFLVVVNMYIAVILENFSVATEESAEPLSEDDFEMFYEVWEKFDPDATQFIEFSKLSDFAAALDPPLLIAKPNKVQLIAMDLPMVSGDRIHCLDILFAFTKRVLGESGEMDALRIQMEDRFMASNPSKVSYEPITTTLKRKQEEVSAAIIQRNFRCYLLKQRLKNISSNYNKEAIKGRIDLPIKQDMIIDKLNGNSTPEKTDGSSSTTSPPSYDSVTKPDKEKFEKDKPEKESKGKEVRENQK
Description: as §1

Consider `C[C@H]1[C@@H](c2ccc(F)c(F)c2OC2COC2)[C@H](C(=O)Nc2ccc(F)c(C(=N)NO)c2)O[C@@]1(C)C(F)(F)F` [Example 11], for which the inhibition at 30 µM in assay [1] was 19.5%; in assay [3], 8.45%; in assay [4] it was 21.7%. Besides, in assay [2], the “Inhibition rate (%)” value was 87.35%.
In the same order, the values of `COc1c([C@H]2[C@H](C(=O)Nc3ccnc(C(N)=O)c3)O[C@@](C)(C(F)(F)F)[C@H]2C)ccc(F)c1F` [Reference compound, reference compound] are 42.9%, 83.6%, 63.4% and 94.49%.
Take `COCCOc1c([C@H]2[C@H](C(=O)Nc3ccc(F)c(C(=N)NO)c3)O[C@@](C)(C(F)(F)F)[C@H]2C)ccc(F)c1F` [Example 10]: the values for the inhibition at 30 µM in assay [1], in assay [3] and in assay [4] were 36%, 75.4% and 28.6%, respectively. For the same compound, the “Inhibition rate (%)” value in assay [2] is 99.65%.
